The values below come from patent US10881716B2, “Rapid-acting insulin formulation comprising a substituted anionic compound” (ADOCIA, priority 2012, dated 2021).

Counter-ions that a name gives are not always drawn.

Data set [1] concerns the target BSA (bovine serum albumin) (Bos taurus, UniProt P02769). The data set can be described thus: Interaction with albumin, Centricon test (50 kDa membrane), UV assay of the filtrate. The following applies: 2.43 mg/mL of polysaccharide or compound, 13.3 mg/mL of albumin in PBS, about 100 mM of salts. The data set is classed as binding. As to the method:
F1: In order to determine the interactions between the various polysaccharides or compounds and a model protein such as albumin, a Centricon test (membrane with a cut-off threshold of 50 kDa) was performed. A solution of polysaccharide or of compound at 7.3 mg/mL was diluted three-fold in a solution of BSA (bovine serum albumin) at 20 mg/mL in PBS (concentration in the mixture: 2.43 mg/mL of polysaccharide or of compound, 13.3 mg/mL of albumin and about 100 mM of salts).
This mixture was centrifuged on a Centricon to make about half the volume pass through the membrane. The albumin is quantitatively retained on the Centricon membrane. The polysaccharides and compounds analyzed alone pass in large majority through the membrane (for the polysaccharides having the largest molar masses, about 20% of the polysaccharide is retained).
After centrifugation, the polysaccharide or compound is assayed by UV in the filtrate. The percentage of polysaccharide or compound bound to the albumin is calculated via the following equation:
(1-[polysaccharide or compound in the filtrate in the presence of albumin]/[polysaccharide or compound in the filtrate in the absence of albumin])*100

The conditions of data set [2]: pH at which the insulin precipitates; cited from earlier work.
Data set [3] concerns the target human insulin (Homo sapiens, UniProt P01308). As to the kind of experiment: Dissolution of human insulin at its isoelectric point (pH 5.3). Conditions: translucent = Yes, turbid = No. The data set is classed as binding. On the procedure:
If an interaction exists, it is possible to dissolve the insulin at its isoelectric point. […] Solutions of compounds at different concentrations (8, 30 or 100 mg/mL) in water are prepared. […] The pH of the various solutions is adjusted to pH 5.3 by adding 200 mM acetic acid. The appearance of the solution is documented.

The subject of data set [4] is man. The following applies: subcutaneously-injected, diabetic patients; cited from earlier work.
The target of data set [5] is human insulin (hexameric form) (Homo sapiens, UniProt P01308). As to the kind of experiment: Association state of human insulin evaluated by circular dichroism (CD signal at 275 nm). The following applies: D2, FIG. 12; rhINS + 9.3 mM citrate, 6 mM EDTA, 7.3 mg/ml Compound 1, 20 mg/ml Polyanionic compound 1. It is filed as physicochemical. On the procedure: Circular dichroism makes it possible to study the secondary and quaternary structure of insulin. The insulin monomers are organized as dimers and as hexamers. […] The CD signal at 275 nm is characteristic of the hexameric form of insulin (hexamer signal at about −300°, signal for the dimer between −200° and −250°, and signal for the monomer below −200°. Loss of the CD signal at 275 nm is therefore characteristic of destabilization of the hexamer into dimers or monomers.
human insulin (hexameric form), sequence (P01308 25-54 limits assumed): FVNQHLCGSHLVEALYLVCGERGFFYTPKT
human insulin (hexameric form), sequence (P01308 90-110 limits assumed): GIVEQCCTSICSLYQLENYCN
Circular dichroism makes it possible to study the secondary and quaternary structure of insulin. The insulin monomers are organized as dimers and as hexamers. […] The CD signal at 275 nm is characteristic of the hexameric form of insulin (hexamer signal at about −300°, signal for the dimer between −200° and −250°, and signal for the monomer below −200°). Loss of the CD signal at 275 nm is therefore characteristic of destabilization of the hexamer into dimers or monomers.
In general terms: Circular dichroism is widely used to follow secondary structure.

Data set [6] concerns the target T1, lispro insulin (R6 hexameric form) (Homo sapiens, UniProt P01308, K53P/P52K).
T1 construct: purchased Eli Lilly Humalog®
The data set can be described thus: Association state of lispro insulin evaluated by circular dichroism (CD signal at 251 nm). Conditions: D1, FIG. 11; Humalog + 9.3 mM citrate, 6 mM EDTA, 7.3 mg/ml Compound 1, 20 mg/ml Polyanionic compound 1. The data set is classed as physicochemical. An excerpt: Circular dichroism makes it possible to study the secondary and quaternary structure of insulin. The insulin monomers are organized as dimers and as hexamers. […] Two hexameric forms exist, the R6 form and the T6 form. […] Loss of the CD signal at 251 nm is linked to destabilization of the hexamer (and thus the first sign of transformation of the hexamer into dimer).
Circular dichroism makes it possible to study the secondary and quaternary structure of insulin. The insulin monomers are organized as dimers and as hexamers. […] Two hexameric forms exist, the R6 form and the T6 form. […] Loss of the CD signal at 251 nm is linked to destabilization of the hexamer (and thus the first sign of transformation of the hexamer into dimer). […]

human insulin, sequence (P01308 25-54 limits assumed): as the sequence (P01308 25-54 limits assumed) above
BSA (bovine serum albumin), sequence (P02769 25-607): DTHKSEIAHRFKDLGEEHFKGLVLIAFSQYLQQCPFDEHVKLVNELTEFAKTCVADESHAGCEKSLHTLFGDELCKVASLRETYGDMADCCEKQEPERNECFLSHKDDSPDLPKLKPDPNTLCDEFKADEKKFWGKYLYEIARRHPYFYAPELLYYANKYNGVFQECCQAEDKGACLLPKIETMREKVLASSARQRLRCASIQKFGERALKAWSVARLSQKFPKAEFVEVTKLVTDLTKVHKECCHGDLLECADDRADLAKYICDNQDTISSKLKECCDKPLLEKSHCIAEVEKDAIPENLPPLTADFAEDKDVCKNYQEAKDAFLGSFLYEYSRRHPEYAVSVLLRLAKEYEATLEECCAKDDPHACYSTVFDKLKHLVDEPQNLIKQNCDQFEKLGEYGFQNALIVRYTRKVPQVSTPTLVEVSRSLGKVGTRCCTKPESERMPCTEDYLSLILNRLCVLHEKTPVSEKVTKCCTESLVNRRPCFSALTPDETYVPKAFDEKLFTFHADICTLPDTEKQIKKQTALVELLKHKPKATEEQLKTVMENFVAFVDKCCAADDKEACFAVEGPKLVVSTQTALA
T1 sequence (P01308 25-54 P52K/K53P limits assumed): as the sequence (P01308 25-54 limits assumed) above, with P28K, K29P counted along it

On to “Sodium Maltotriosemethylcarboxylate Functionalized with Sodium Alpha-Phenylglycinate [Compound 11]”, for which, in data set [1], the “% Polysaccharide or % Compound bound to BSA” value was 35%.
Consider “Lispro insulin: rapid insulin analog, active principle of Humalog”, for which, in data set [2], the isoelectric point is given as 5.3.
Regarding “Sodium Maltotriosemethylcarboxylate Functionalized with Sodium L-Tyrosinate [Compound 10]”, in data set [3], the “Dissolution of human insulin at 100 IU/mL with the compound at 4 mg/mL” value (from here on “Dissolution of human insulin … at 4 mg/mL”) was “No”, the “Dissolution of human insulin at 100 IU/mL with the compound at 15 mg/mL” value (“Dissolution of human insulin … at 15 mg/mL” below) was “No” and the “Dissolution of human insulin at 100 IU/mL with the compound at 50 mg/mL” value (“Dissolution of human insulin … at 50 mg/mL” below) is recorded as “Yes”.
For the molecule “Sodium Maltooctaosemethylcarboxylate Functionalized with Sodium L-Phenylalaninate [Compound 9]”, the “% Polysaccharide or % Compound bound to BSA” value in data set [1] was 43%. Besides, in data set [3], the “Dissolution of human insulin … at 4 mg/mL” value is “No”, the “Dissolution of human insulin … at 15 mg/mL” value is listed as “No” and the “Dissolution of human insulin … at 50 mg/mL” value was “Yes”.
For the molecule “human insulin: insulin obtained by synthesis or recombination, whose peptide sequence is the sequence of human insulin”, the “hypoglycemiant effect only after” value in data set [4] was 60 min.
On to “Sodium Maltotriosemethylcarboxylate [Polyanionic compound 1]”, for which the “impact on the CD signal at 275 nm / hexameric structure of human insulin” value in data set [5] is “no impact on the hexameric structure of human insulin”.
Take “Sodium Maltopentaosemethylcarboxylate Functionalized with Sodium L-Phenylalaninate [Compound 8]”: in data set [1], the “% Polysaccharide or % Compound bound to BSA” value was 27%. Further, in data set [3], the “Dissolution of human insulin … at 4 mg/mL” value is “No”, the “Dissolution of human insulin … at 15 mg/mL” value is listed as “No” and the “Dissolution of human insulin … at 50 mg/mL” value is “Yes”.
`O=C(O)CC(O)(CC(=O)O)C(=O)O` [citrate, sodium citrate]: the “impact on the CD signal at 251 nm / R6 hexameric form of lispro insulin” value in data set [6] is “virtually no impact on the CD signal at 251 nm”. The “impact on the CD signal at 275 nm / hexameric structure of human insulin” value in data set [5] is listed as “no impact on the hexameric structure of human insulin”.
On to `O=C(O)CN(CCN(CC(=O)O)CC(=O)O)CC(=O)O` [EDTA, reference compound], for which the “impact on the CD signal at 251 nm / R6 hexameric form of lispro insulin” value in data set [6] was “completely destructure the R6 form of lispro insulin”. For the same molecule, in data set [5], the “impact on the CD signal at 275 nm / hexameric structure of human insulin” value is listed as “total dissociation of the hexamer into dimers”.
